Data from ChEMBL document CHEMBL5096238 (J Med Chem, 2022).

Key:
Hs746T = assay: cells; settings: Homo sapiens, 120 h
[1] = target: T1, Hepatocyte growth factor receptor (Homo sapiens, UniProt P08581); assay: Inhibition of N-terminal His/SUMO tagged wild type human c-Met (1038 to 1346 residues) transfected in Escherichia coli using Tyr06 peptide as substrate incubated for 1 hr in presence of ATP by FRET-based Z'-Lyte assay
[2] = Apparent permeability across apical to basolateral side in human Caco-2 cells at 10 uM incubated for 120 mins by LC-MS/MS analysis; assay type: ADME, cell-based
[3] = AUC(0 to t) in Sprague-Dawley rat at 10 mg/kg, po measured for 24 hrs by LC-MS/MS analysis; assay type: ADME, organism-based; set-up: time 24 hrs, dose 10 mg/kg, route po; settings: in vivo
[4] = MRT (0 to t) in Sprague-Dawley rat at 2 mg/kg, iv measured for 24 hrs by LC-MS/MS analysis; assay type: ADME, organism-based; settings: in vivo
BaF3 [5] = assay: Induction of apoptosis in mouse BaF3 cells harboring wild type Tpr-Met fusion protein assessed as viable cells at 40 nM incubated for 48 hrs by Annexin V/7-AAD staining based flow cytometry analysis (reference value: 89.76%); assay type: functional; settings: read-out: Activity
[6] = Cmax in Sprague-Dawley rat at 2 mg/kg, iv measured for 24 hrs by LC-MS/MS analysis; assay type: ADME, organism-based; set-up: dose 2 mg/kg, time 24 hrs, route iv; settings: in vivo
Cytochrome P450 2C9 = Cytochrome P450 2C9 (Homo sapiens, UniProt P11712); assay: Inhibition of CYP2C9 (unknown origin) in microsomes preincubated for 5 mins followed by NADPH addition by LC-MS/MS analysis; assay type: ADME, Microsome
Chain of Cytochrome P450 2C9 (P11712 whole entry): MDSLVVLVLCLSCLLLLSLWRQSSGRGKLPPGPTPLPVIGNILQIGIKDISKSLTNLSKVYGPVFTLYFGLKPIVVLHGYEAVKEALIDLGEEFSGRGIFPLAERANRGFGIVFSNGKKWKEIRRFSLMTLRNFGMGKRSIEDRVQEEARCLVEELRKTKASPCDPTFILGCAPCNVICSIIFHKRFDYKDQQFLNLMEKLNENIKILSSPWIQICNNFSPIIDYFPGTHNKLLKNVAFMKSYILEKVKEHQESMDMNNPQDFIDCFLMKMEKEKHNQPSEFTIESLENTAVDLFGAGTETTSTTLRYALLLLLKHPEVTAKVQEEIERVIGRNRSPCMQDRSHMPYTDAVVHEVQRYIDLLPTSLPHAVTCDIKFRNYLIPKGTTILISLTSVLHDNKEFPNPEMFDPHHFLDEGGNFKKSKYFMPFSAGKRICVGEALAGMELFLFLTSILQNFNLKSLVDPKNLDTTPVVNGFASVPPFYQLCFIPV

Cytochrome P450 2D6 = Cytochrome P450 2D6 (Homo sapiens, UniProt P10635); assay: Inhibition of CYP2D6 (unknown origin) in microsomes preincubated for 5 mins followed by NADPH addition by LC-MS/MS analysis; assay type: ADME, Microsome
Chain of Cytochrome P450 2D6 (P10635 whole entry): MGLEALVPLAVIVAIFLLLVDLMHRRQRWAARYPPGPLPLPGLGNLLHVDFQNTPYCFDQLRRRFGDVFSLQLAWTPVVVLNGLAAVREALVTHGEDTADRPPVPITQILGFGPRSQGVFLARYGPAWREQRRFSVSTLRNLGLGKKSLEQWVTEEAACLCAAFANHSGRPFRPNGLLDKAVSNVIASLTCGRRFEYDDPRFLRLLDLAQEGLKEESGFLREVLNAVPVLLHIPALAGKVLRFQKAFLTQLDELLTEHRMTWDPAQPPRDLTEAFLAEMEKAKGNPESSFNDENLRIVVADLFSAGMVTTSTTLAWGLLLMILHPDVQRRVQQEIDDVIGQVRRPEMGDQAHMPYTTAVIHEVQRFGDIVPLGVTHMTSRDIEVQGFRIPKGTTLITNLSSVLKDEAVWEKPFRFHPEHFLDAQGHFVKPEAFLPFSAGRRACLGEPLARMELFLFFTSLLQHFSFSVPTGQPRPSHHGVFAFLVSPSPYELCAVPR

[7] = target: Voltage-gated inwardly rectifying potassium channel KCNH2 (Homo sapiens, UniProt Q12809); assay: Inhibition of hERG expressed in HEK293 cells by whole-cell patch clamp technique; assay type: toxicity, cell-based
BaF3 [8] = assay: Induction of apoptosis in mouse BaF3 cells harboring wild type Tpr-Met fusion protein assessed as viable cells at 20 nM incubated for 48 hrs by Annexin V/7-AAD staining based flow cytometry analysis (reference value: 89.76%); assay type: functional; settings: read-out: Activity
[9] = Bioavailability in Sprague-Dawley rat at 10 mg/kg, ip measured for 24 hrs by LC-MS/MS analysis; assay type: ADME, organism-based; settings: in vivo
[10] = MRT (0 to t) in Sprague-Dawley rat at 10 mg/kg, ip measured for 24 hrs by LC-MS/MS analysis; assay type: ADME, organism-based; settings: in vivo
[11] = Half life in Sprague-Dawley rat at 2 mg/kg, iv measured for 24 hrs by LC-MS/MS analysis; assay type: ADME, organism-based; settings: in vivo
[12] = Half life in Sprague-Dawley rat at 10 mg/kg, po measured for 24 hrs by LC-MS/MS analysis; assay type: ADME, organism-based; settings: in vivo
[13] = Apparent volume of distribution in Sprague-Dawley rat at 2 mg/kg, iv measured for 24 hrs by LC-MS/MS analysis; assay type: ADME, organism-based; settings: in vivo, read-out: Vz
[14] = Half life in Sprague-Dawley rat at 10 mg/kg, ip measured for 24 hrs by LC-MS/MS analysis; assay type: ADME, organism-based; settings: in vivo
[15] = Tmax in Sprague-Dawley rat at 10 mg/kg, po measured for 24 hrs by LC-MS/MS analysis; assay type: ADME, organism-based; settings: in vivo
[16] = AUC(0 to t) in Sprague-Dawley rat at 2 mg/kg, iv measured for 24 hrs by LC-MS/MS analysis; assay type: ADME, organism-based; set-up: time 24 hrs, dose 2 mg/kg, route iv; settings: in vivo
[17] = Tmax in Sprague-Dawley rat at 2 mg/kg, iv measured for 24 hrs by LC-MS/MS analysis; assay type: ADME, organism-based; settings: in vivo
[18] = target: T2, Tyrosine-protein kinase receptor UFO (Homo sapiens, UniProt P30530); assay: Inhibition of AXL (unknown origin)
T2 sequence (P30530 whole entry): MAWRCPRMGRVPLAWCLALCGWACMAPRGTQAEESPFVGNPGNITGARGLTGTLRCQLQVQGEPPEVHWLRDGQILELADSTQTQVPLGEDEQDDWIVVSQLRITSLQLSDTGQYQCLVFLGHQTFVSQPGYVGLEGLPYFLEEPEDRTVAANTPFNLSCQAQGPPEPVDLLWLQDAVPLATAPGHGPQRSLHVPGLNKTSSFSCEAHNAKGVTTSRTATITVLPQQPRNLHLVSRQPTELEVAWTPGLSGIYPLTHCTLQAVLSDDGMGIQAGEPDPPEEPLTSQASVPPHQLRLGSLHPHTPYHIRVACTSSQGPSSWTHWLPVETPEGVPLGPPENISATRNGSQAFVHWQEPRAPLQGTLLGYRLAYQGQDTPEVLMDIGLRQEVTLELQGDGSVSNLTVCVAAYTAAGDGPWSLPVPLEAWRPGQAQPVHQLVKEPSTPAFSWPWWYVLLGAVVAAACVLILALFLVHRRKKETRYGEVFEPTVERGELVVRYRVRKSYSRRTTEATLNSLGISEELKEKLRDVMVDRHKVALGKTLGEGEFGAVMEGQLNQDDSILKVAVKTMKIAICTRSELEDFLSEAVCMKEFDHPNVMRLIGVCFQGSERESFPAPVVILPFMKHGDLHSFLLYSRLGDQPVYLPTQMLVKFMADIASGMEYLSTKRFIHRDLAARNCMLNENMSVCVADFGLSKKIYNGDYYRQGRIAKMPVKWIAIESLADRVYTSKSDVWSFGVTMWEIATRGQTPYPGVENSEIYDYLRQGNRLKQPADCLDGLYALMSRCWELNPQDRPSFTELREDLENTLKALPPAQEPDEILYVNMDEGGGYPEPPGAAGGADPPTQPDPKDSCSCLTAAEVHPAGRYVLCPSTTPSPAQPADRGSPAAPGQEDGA

[19] = target: T1, Hepatocyte growth factor receptor; settings: Hs746T, dose 1.1-30 nM, time 12.0 hrs
[20] = Cmax in Sprague-Dawley rat at 10 mg/kg, po measured for 24 hrs by LC-MS/MS analysis; assay type: ADME, organism-based; set-up: dose 10 mg/kg, time 24 hrs, route po; settings: in vivo
[21] = MRT (0 to t) in Sprague-Dawley rat at 10 mg/kg, po measured for 24 hrs by LC-MS/MS analysis; assay type: ADME, organism-based; settings: in vivo
[22] = Tmax in Sprague-Dawley rat at 10 mg/kg, ip measured for 24 hrs by LC-MS/MS analysis; assay type: ADME, organism-based; settings: in vivo
[23] = Cmax in Sprague-Dawley rat at 10 mg/kg, ip measured for 24 hrs by LC-MS/MS analysis; assay type: ADME, organism-based; set-up: time 24 hrs, dose 10 mg/kg, route ip; settings: in vivo
[24] = AUC(0 to t) in Sprague-Dawley rat at 10 mg/kg, ip measured for 24 hrs by LC-MS/MS analysis; assay type: ADME, organism-based; set-up: dose 10 mg/kg, time 24 hrs, route ip; settings: in vivo
[25] = Clearance in Sprague-Dawley rat at 2 mg/kg, iv measured for 24 hrs by LC-MS/MS analysis; assay type: ADME, organism-based; settings: in vivo
[26] = target: Hepatocyte growth factor receptor (Mus musculus) (UniProt P16056); settings: BaF3, dose 1.1-30 nM, time 12.0 hrs
Chain of Hepatocyte growth factor receptor (Mus musculus) (P16056 whole entry, the tested form may be a part): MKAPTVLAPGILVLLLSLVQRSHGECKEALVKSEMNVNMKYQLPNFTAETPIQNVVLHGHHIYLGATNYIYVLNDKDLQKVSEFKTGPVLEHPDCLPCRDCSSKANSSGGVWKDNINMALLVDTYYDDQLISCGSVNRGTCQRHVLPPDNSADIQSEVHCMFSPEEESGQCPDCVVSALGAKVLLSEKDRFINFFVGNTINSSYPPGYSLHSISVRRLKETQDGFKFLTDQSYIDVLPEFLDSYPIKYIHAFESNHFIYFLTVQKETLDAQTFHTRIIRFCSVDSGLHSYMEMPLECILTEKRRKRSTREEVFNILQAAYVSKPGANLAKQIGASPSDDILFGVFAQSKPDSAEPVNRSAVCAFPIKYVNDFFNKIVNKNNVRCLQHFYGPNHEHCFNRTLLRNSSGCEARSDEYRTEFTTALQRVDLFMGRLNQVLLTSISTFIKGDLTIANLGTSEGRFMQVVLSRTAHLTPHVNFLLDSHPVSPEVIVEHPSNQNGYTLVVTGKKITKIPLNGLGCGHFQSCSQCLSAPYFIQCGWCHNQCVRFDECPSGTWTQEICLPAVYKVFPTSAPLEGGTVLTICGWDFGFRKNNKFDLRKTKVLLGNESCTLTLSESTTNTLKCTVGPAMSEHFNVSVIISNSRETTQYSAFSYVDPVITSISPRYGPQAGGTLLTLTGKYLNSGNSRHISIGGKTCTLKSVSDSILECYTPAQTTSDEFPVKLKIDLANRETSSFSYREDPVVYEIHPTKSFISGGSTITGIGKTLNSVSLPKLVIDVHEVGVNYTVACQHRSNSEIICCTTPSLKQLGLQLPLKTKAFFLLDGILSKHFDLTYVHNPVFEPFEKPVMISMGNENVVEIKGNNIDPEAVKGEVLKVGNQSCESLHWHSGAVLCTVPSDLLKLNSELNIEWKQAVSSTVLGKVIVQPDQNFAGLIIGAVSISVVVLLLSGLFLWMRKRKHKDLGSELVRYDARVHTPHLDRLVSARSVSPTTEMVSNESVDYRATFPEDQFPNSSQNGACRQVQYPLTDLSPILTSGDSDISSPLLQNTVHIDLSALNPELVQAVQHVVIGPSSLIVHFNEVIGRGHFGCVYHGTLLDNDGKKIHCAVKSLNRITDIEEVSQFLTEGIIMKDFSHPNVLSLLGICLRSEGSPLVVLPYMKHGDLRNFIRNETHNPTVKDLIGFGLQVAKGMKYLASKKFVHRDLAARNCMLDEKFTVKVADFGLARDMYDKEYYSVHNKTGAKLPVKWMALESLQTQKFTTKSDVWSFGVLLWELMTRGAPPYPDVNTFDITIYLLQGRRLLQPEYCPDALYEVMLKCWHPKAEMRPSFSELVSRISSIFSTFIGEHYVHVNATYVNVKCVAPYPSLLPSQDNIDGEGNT

BaF3 [27] = assay: Induction of apoptosis in mouse BaF3 cells harboring wild type Tpr-Met fusion protein assessed as viable cells at 10 nM incubated for 48 hrs by Annexin V/7-AAD staining based flow cytometry analysis (reference value: 89.76%); assay type: functional; settings: read-out: Activity
Cytochrome P450 3A4 = Cytochrome P450 3A4 (Homo sapiens, UniProt P08684); assay: Inhibition of CYP3A4 (unknown origin) in microsomes sing testosterone as a substrate preincubated for 5 mins followed by NADPH addition by LC-MS/MS analysis; assay type: ADME, Microsome
Chain of Cytochrome P450 3A4 (P08684 whole entry): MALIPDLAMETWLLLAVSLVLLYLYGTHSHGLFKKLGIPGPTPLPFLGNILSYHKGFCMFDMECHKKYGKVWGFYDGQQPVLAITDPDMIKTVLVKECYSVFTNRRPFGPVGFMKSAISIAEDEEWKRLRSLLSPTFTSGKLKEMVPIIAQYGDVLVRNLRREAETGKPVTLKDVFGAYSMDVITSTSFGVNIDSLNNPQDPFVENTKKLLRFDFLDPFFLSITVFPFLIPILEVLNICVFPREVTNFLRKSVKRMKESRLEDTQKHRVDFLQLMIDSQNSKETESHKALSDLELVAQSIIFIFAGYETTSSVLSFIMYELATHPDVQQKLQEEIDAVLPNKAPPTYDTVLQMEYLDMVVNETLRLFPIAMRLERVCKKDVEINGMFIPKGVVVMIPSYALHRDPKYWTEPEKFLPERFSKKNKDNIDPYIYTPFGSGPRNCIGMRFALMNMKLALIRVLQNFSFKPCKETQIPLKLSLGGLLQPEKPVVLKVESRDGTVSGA

[28] = Oral bioavailability in Sprague-Dawley rat at 10 mg/kg measured for 24 hrs by LC-MS/MS analysis; assay type: ADME, organism-based; settings: in vivo
BaF3 [29] = assay: cells; settings: Mus musculus, BaF3, 72 h
BaF3 [30] = assay: cells; settings: Mus musculus, BaF3, 72 h; remark: listed apart in the source
BaF3 [31] = assay: cells; settings: Mus musculus, BaF3, 72 h; remark: listed apart in the source
BaF3 [32] = assay: cells; settings: Mus musculus, BaF3, 72 h; remark: listed apart in the source
SNU-16 = assay: cells; settings: Homo sapiens, SNU-16, 120 h
BaF3 [33] = assay: cells; settings: Mus musculus, BaF3, 72 h; remark: listed apart in the source
BaF3 [34] = assay: cells; settings: Mus musculus, BaF3, 72 h; remark: listed apart in the source
BaF3 [35] = assay: cells; settings: Mus musculus, BaF3, 72 h; remark: listed apart in the source
AGS = assay: cells; settings: Homo sapiens, 120 h
BaF3 [36] = assay: cells; settings: Mus musculus, BaF3, 72 h; remark: listed apart in the source

T1 sequence (P08581 whole entry, the tested form may be a part): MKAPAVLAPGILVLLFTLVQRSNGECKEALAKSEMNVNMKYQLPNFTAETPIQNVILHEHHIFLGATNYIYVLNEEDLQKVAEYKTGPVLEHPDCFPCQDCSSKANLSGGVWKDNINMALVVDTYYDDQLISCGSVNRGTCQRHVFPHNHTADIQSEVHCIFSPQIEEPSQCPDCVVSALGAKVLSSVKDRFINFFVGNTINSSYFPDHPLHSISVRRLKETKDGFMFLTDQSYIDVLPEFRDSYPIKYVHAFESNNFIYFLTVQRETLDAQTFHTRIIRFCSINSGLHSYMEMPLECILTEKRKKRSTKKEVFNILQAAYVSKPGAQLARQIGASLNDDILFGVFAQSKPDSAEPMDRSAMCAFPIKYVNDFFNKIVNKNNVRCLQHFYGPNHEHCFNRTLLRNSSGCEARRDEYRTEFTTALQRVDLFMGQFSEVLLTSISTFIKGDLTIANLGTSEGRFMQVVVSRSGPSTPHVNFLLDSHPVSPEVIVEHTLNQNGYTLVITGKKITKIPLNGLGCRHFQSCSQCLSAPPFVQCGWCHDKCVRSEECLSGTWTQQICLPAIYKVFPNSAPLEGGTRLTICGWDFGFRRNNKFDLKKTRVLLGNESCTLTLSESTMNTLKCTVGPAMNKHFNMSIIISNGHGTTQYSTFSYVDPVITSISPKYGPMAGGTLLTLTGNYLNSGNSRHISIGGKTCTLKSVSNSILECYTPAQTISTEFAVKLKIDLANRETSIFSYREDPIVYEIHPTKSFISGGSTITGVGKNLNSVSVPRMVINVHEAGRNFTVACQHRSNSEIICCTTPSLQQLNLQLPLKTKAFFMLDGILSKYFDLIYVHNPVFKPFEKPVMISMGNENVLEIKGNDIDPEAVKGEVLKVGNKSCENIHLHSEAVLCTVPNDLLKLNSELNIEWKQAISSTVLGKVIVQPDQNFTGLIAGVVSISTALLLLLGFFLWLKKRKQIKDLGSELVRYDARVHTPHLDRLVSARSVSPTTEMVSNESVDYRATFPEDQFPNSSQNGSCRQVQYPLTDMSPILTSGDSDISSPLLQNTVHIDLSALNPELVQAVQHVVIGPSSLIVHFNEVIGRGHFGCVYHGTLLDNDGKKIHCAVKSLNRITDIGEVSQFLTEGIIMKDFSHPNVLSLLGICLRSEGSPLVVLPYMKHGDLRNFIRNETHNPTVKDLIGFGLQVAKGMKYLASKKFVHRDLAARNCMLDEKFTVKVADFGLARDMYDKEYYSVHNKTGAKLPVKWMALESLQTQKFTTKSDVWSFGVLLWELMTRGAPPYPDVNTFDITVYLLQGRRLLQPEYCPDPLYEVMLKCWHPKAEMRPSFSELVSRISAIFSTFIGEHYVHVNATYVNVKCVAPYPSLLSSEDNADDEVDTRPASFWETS

In the case of `O=C1NCCCCCn2cc(cn2)-c2cnc3ccc(cc3c2)CCn2nc(ccc2=O)-c2ccc1c(C(F)(F)F)c2`, the IC50 (Hs746T) is reported as 163 nM, the IC50 [1] is reported as 3.3 nM and the Papp A→B at 2 h, 10 µM [2] is reported as 0.29 ×10⁻⁶ cm/s.

For `O=C1NCCCCn2cc(cn2)-c2cnc3ccc(cc3c2)CCn2nc(ccc2=O)-c2ccc1c(C(F)(F)F)c2`, the AUC(0-t) at 24 h [3] was 48.9 ng·h/mL, the MRT last at 24 h [4] was 21.6 min and the viability at 0.04 µM (BaF3 [5]) was 42.9%. For the same compound, the Cmax [6] was 1070 ng/mL, the IC50 [1] was 2.9 nM and the IC50 (Cytochrome P450 2C9) was over 10000 nM. For the same compound, the IC50 (Cytochrome P450 2D6) was over 10000 nM, the IC50 [7] was 27700 nM and the viability at 0.02 µM (BaF3 [8]) was 75.4%. It also gave a bioavailability [9] of 33.9%, an MRT last at 24 h [10] of 204 min and a half-life [11] of 34.2 min. The half-life [12] was 149 min, the Vd [13] was 3.47 L/kg and the half-life [14] was 278 min. The Tmax [15] was 15 min, the AUC(0-t) at 24 h [16] was 484 ng·h/mL and the Tmax [17] was 4.8 min. The IC50 [18] was 401 nM, the inhibition [19] was “Dde” and the Cmax [20] was 61 ng/mL. For the same compound, the MRT last at 24 h [21] was 103 min, the Tmax [22] was 15 min and the Cmax [23] was 282 ng/mL. For the same compound, the AUC(0-t) at 24 h [24] was 820 ng·h/mL, the clearance [25] was 70.1 mL/min/kg and the inhibition [26] was “Dde”. For the same compound, the viability at 0.01 µM (BaF3 [27]) was 87%, the IC50 (Cytochrome P450 3A4) was over 10000 nM and the Papp A→B at 2 h, 10 µM [2] was 0.53 ×10⁻⁶ cm/s. It also gave a bioavailability [28] of 2.02%.

Work on `CNC(=O)c1ccc(-c2ccc(=O)n(CCc3ccc4ncc(-c5cnn(C6CCOCC6)c5)cc4c3)n2)cc1C(F)(F)F` yielded an IC50 [1] of 5.4 nM and an IC50 [18] of 164 nM.

For `CN1CCC(COc2cnc(-c3cccc(Cn4nc(-c5cccc(C#N)c5)ccc4=O)c3)nc2)CC1` [TEPOTINIB], the IC50 (Hs746T) was 4.5 nM, the IC50 (BaF3 [29]) was 36.6 nM and the IC50 (BaF3 [30]) was 3060 nM. It also gave an IC50 (BaF3 [31]) of 46.7 nM, an IC50 (BaF3 [32]) of 2.5 nM and an IC50 (SNU-16) of 363 nM. It also gave an IC50 (BaF3 [33]) of 10 nM, an IC50 (BaF3 [34]) of 2380 nM and an IC50 (BaF3 [35]) of 8.8 nM. The IC50 (AGS) was 1450 nM and the IC50 (BaF3 [36]) was 1.5 nM.
